From ChEMBL document CHEMBL5620417, “N-aryltetrahydroisoquinoline derivatives as HA-CD44 interaction inhibitors: Design, synthesis, computational studies, and antitumor effect” (Eur J Med Chem, 2023) come the findings set out here.

For test [1], the system named is A549. Kind of test: Antiproliferative activity against human A549 cells assessed as reduction in cell viability at >=100 uM incubated for 5 days by PrestoBlue reagent based glo-max fluorescence assay. It is filed as functional. As to conditions: time 5.0 day.
Test [2] relates to MDA-MB-231. Briefly: Antiproliferative activity against human MDA-MB-231 cells assessed as reduction in cell viability at >=100 uM incubated for 5 days by PrestoBlue reagent based glo-max fluorescence assay. The format is functional. As to conditions: time 5.0 day.
In test [3] the test system is MDA-MB-231. Kind of test: Antiproliferative activity against human MDA-MB-231 cells assessed as reduction in cell viability incubated for 5 days by PrestoBlue reagent based glo-max fluorescence assay. The format is functional. The conditions noted are these: MDA-MB-231, 120 h.
The test system of test [4] is A549. Briefly: Antiproliferative activity against human A549 cells assessed as reduction in cell viability incubated for 5 days by PrestoBlue reagent based glo-max fluorescence assay. The format is functional. As to conditions: A549, 120 h.
Test [5] concerns MDA-MB-231. Kind of test: Antiproliferative activity against human MDA-MB-231 cells assessed as reduction in cell viability at <=70 uM incubated for 5 days by PrestoBlue reagent based glo-max fluorescence assay. It is filed as functional. The conditions noted are these: time 5.0 day.
Test [6] relates to MDA-MB-231. Kind of test: Antiproliferative activity against human MDA-MB-231 cells assessed as increase in dead cell in spheroid at 1 uM incubated for 5 days by PrestoBlue reagent based microscopic analysis. The conditions noted are these: time 5.0 day. The format is functional.
For test [7], the system named is MDA-MB-231. Briefly: Antiproliferative activity against human MDA-MB-231 cells assessed as fold change in cell viability incubated for 5 days by PrestoBlue reagent based glo-max fluorescence assay. The format is functional. As to conditions: time 5 day.
Test [8] relates to MDA-MB-231. Briefly: Antiproliferative activity against human MDA-MB-231 cells assessed as reduction in cell viability incubated for 5 days pre-incubated with anti-CD44 antibody IM7 by PrestoBlue reagent based glo-max fluorescence assay relative to control. As to conditions: time 5 day. The format is functional.
Test [9] has as its system MDA-MB-231. Kind of test: Antiproliferative activity against human MDA-MB-231 cells assessed as decrease in viable cells incubated for 5 days by PrestoBlue reagent based glo-max fluorescence assay. It is filed as functional, cell-based. The conditions noted are these: time 5.0 day.
Test [10] concerns the target CD44 antigen (Homo sapiens) (UniProt P16070). Briefly: Displacement of HA-FITC from CD44 in human MDA-MB-231 cells assessed as decrease in fluorescent intensity at 120 ug/ml incubated for 45 mins by competitive binding assay based flow cytometric analysis. It is filed as cell-based. The conditions noted are these: dose 120.0 µg/ml. (A flow cytometer gives signals particle by particle.)

The subject of test [11] is MDA-MB-231. Kind of test: Antiproliferative activity against human MDA-MB-231 cells assessed as change in spheroid integrity at 1 uM incubated for 5 days by PrestoBlue reagent based microscopic analysis. It is filed as functional, cell-based. The conditions noted are these: time 5.0 day.
Test [12] concerns MDA-MB-231. Kind of test: Antiproliferative activity against human MDA-MB-231 cells assessed as spheroid disaggregation at 100 uM incubated for 5 days by PrestoBlue reagent based microscopic analysis. The conditions noted are these: time 5.0 day. It is filed as functional, cell-based.

The source made the active and inactive calls. No cut-off for these calls is given here.

Sequence of CD44 antigen (Homo sapiens) (P16070 whole entry): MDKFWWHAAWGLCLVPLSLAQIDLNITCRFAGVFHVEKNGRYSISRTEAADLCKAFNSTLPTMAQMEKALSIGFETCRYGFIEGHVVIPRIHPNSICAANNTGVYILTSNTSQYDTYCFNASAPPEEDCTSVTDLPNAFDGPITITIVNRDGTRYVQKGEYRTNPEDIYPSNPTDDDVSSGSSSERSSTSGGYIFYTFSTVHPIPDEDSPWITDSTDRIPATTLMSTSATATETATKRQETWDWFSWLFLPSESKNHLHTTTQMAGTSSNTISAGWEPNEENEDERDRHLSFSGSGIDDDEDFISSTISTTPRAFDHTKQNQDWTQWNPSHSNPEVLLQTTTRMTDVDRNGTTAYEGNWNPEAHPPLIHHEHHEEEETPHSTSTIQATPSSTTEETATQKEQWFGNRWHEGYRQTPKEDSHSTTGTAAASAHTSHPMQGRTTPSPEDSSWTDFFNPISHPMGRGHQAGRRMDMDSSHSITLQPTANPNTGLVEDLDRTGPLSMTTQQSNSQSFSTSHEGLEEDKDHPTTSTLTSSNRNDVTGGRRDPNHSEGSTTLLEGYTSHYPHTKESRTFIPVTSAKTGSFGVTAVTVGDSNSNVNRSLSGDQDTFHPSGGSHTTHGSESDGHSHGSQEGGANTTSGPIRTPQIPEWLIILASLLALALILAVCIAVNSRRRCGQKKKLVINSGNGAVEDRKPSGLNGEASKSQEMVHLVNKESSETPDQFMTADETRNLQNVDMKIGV

As for `COc1cc2c(cc1OC)CN(S(=O)(=O)c1ccc([N+](=O)[O-])cc1)CC2`, the result in the test with A549 [1] and with MDA-MB-231 [2] was inactive.

Broadly, the EC50 is the concentration needed to bring the measured effect to its halfway point. As to `Nc1cccc2c1CCN(Cc1ccc(Br)cc1)C2`, the figures for the EC50 in the test with MDA-MB-231 [3] and in the test with A549 [4] were 77.1 µM and 37.9 µM, respectively.

Consider `Brc1ccc(CN2CCc3ccccc3C2)cc1`, for which the results for the EC50 with MDA-MB-231 [3] and in the test on A549 [4] were 77.1 µM and 37.9 µM, respectively.

As for `COc1cc2c(cc1OC)CN(S(=O)(=O)c1ccc(C)cc1)CC2`, the result with A549 [1] and in the test on MDA-MB-231 [2] was inactive.

Consider `COc1cc(CN2CCc3ccccc3C2)cc(OC)c1OC`, for which the EC50 in the test with MDA-MB-231 [3] worked out at 19.8 µM; in the test with A549 [4], 48.2 µM. Further, the result with MDA-MB-231 [5] was Active.

In the case of `COc1cc2c(cc1OC)CN(Cc1ccc(Br)cc1)CC2`, the EC50 in the test with MDA-MB-231 [3] turned out to be 77.1 µM; in the test on A549 [4], 37.9 µM.

`COc1cc(CN2CCc3c(O)cccc3C2)cc(OC)c1OC`: the result (in the test with MDA-MB-231 [6]; in test [10]; with MDA-MB-231 [11]; in the test with MDA-MB-231 [12]) was Active. The “fold change (FC)” value with MDA-MB-231 [7] is recorded as 4. The 50% effective concentration (EC50) in the test with MDA-MB-231 [3] came out at 0.59 µM. Further, the Activity was 21% with MDA-MB-231 [8] and “Dose-Dependent Effect” in the test on MDA-MB-231 [9].

For the compound `Nc1cccc2c1CCN(Cc1ccc(C(F)(F)F)cc1)C2`, the EC50 in the test with MDA-MB-231 [3] was 52.1 µM; in the test with A549 [4] it was 34.7 µM.

Regarding `COc1cc(CN2CCc3c(Br)cccc3C2)cc(OC)c1OC`, the “fold change (FC)” value in the test on MDA-MB-231 [7] came out at 1.3. For the same compound, the EC50 in the test with MDA-MB-231 [3] is 1.77 µM. In the test on MDA-MB-231 [8], the Activity came out at 24%. Moreover, the outcome in [10] was Active.

As to `Cc1ccc(S(=O)(=O)N2CCc3ccccc3C2)cc1`, the outcome in the test on A549 [1] and with MDA-MB-231 [2] was inactive.

Turning to `Cc1ccc(S(=O)(=O)N2CCc3c(N)cccc3C2)cc1`, the result with A549 [1] and in the test on MDA-MB-231 [2] was inactive.

As to `COc1cc(CN2CCc3c(N)cccc3C2)cc(OC)c1OC`, the values for the EC50 in the test with MDA-MB-231 [3] and in the test on A549 [4] were 2.31 µM and 3.48 µM, respectively. In addition, the Activity in the test on MDA-MB-231 [8] came out at 13%. For the same compound, the result (with MDA-MB-231 [5]; in [10]) was Active.

Consider `Nc1cccc2c1CN(S(=O)(=O)c1ccc([N+](=O)[O-])cc1)CC2`, for which the result in the test with A549 [1] and in the test on MDA-MB-231 [2] was inactive.

Turning to `Nc1cccc2c1CN(Cc1ccc(Br)cc1)CC2`, the values for the EC50 with MDA-MB-231 [3] and with A549 [4] were 77.1 µM and 37.9 µM, respectively.

For `FC(F)(F)c1ccc(CNc2cccc3c2CN(Cc2ccc(C(F)(F)F)cc2)CC3)cc1`, the values for the EC50 in the test on MDA-MB-231 [3] and with A549 [4] were 31.5 µM and 37 µM, respectively.

Regarding `O=[N+]([O-])c1ccc(S(=O)(=O)N2CCc3ccccc3C2)cc1`, the outcome in the test with A549 [1] was inactive. Further, the EC50 with MDA-MB-231 [3] is 61.8 µM.

In the case of `FC(F)(F)c1ccc(CN2CCc3ccccc3C2)cc1`, the EC50 with MDA-MB-231 [3] was determined as 52.1 µM; with A549 [4], 34.7 µM.

On to `COc1cc2c(cc1OC)CN(Cc1cc(OC)c(OC)c(OC)c1)CC2`, for which the EC50 with MDA-MB-231 [3] worked out at 70.3 µM; in the test on A549 [4], 77.7 µM. Besides, in the test on MDA-MB-231 [5], the outcome was Active.

Regarding `CC(=O)CCN1CCc2ccccc2C1`, the EC50 in the test with MDA-MB-231 [3] was determined as 8 µM.

Regarding `COc1cc2c(cc1OC)CN(Cc1ccc(C(F)(F)F)cc1)CC2`, the EC50 in the test with MDA-MB-231 [3] was 52.1 µM; in the test on A549 [4] it was 34.7 µM.

As to `Cc1ccc(S(=O)(=O)N2CCc3cccc(N)c3C2)cc1`, the outcome with A549 [1] and with MDA-MB-231 [2] was inactive.

`Nc1cccc2c1CN(Cc1ccc(C(F)(F)F)cc1)CC2`: the results for the EC50 in the test on MDA-MB-231 [3] and in the test on A549 [4] were 52.1 µM and 34.7 µM, respectively.

With `COc1cc(CN2CCc3cccc(N)c3C2)cc(OC)c1OC`, the EC50 turned out to be 57.4 µM with MDA-MB-231 [3] and 72.4 µM with A549 [4]. Also, the result in the test with MDA-MB-231 [5] was Active.

Regarding `Nc1cccc2c1CCN(S(=O)(=O)c1ccc([N+](=O)[O-])cc1)C2`, the outcome with A549 [1] and in the test on MDA-MB-231 [2] was inactive.
